Measurements as given in patent publication US20080274121A1, “Inhibition of Angiogenesis by Mithramycin” (priority 2007, published 2008).

Columns and labels:
PANC-1 cells [1] = assay: PANC-1 subcutaneous xenograft, tumor volume and body weight; assay type: in vivo, nude mice; settings: BVZ 25 μg, MIT 0.10 mg/kg, or B+M
Protocol: FIG. 11. Synergistic antitumor effects of treatment with BVZ and MIT in xenograft models of human pancreatic cancer. […] C, representative tumor sizes in each group of BxPC3 model mice.
Next, we performed experiments using both BxPC3 and PANC-1 tumor cell models in which we administered PBS, BVZ (25 μg), MIT (0.10 mg/kg), or B+M to a group of nude mice.

PANC-1 cells [2] = assay: Viable cell count in vitro, PANC-1; assay type: cell-based, human; settings: 100 μg/ml BVZ
Protocol: FIG. 14. Effects of treatment with BVZ and MIT on the growth of and gene expression in human pancreatic cancer cells in vitro. (A) BxPC3 and (B) PANC-1 cells were incubated for 1 to 5 days in a medium alone or a medium containing 100 μg/ml BVZ. The viable cells were counted every 24 hours. C, PANC-1 cells were incubated for 6 to 48 hours in a medium alone or a medium containing 100 μg/ml BVZ. Total protein lysates were harvested from the cell cultures, and the level of Sp1, EGFR, and VEGF protein expression was determined using Western blot analysis. Equal protein-sample loading was monitored by probing the same membrane filter with an anti-glyceraldehyde-3-phosphate dehydrogenase antibody (GAPDH). D and E, PANC-1 cells were treated with MIT at concentrations ranging from 0.1 to 1.2 μM for 24 and 48 hours. (D) Cytotoxicity was assessed using the MTT assay, and (E) the level of gene expression was determined using Western blot analysis. NS, nonspecific.
Effects of treatment with BVZ and MIT on the growth of and gene expression in human pancreatic cancer cells. To further determine whether treatment with BVZ directly impacts gene expression in pancreatic cancer cells, we incubated PANC-1 and BxPC3 cells in a medium alone or a medium containing 100 μg/ml BVZ for 6 to 48 hours.

[3] = tested on: Sp1 recruitment into the Sp1 promoter; assay: ChIP assay, PANC-1 cells in vitro; assay type: cell-based, human; settings: 100 μg/ml BVZ or 0.1 μM MIT, 2 days
Protocol: FIG. 15. Effects of treatment with BVZ and MIT on Sp1 recruitment into the Sp1 promoter in human pancreatic cancer cells in vitro and in vivo. A, schematic structures of the minimal Sp1 promoters. The nucleotide positions and sequences of Sp1-binding sites and polymerase chain reaction forward and reverse primers flanking those sites for ChIP assay are shown. B, Sp1 and VEGF promoter reporter constructs were transfected into PANC-1 cells in triplicate and incubated for 12 hours. The cells were then incubated for another 24 hours in a medium alone or a medium containing 100 μg/ml BVZ or 0.1 μM MIT. Total protein lysates were harvested from the cell cultures for measurement of Sp1 and VEGF promoter activity using a luciferase assay kit. The relative Sp1 and VEGF promoter activities were assessed, and the activity in treated groups was expressed as the fold change of that in their respective control groups. C and D, chromatin was extracted from (C) PANC-1 cells that were incubated in vitro for 2 days in a medium alone or a medium containing 100 μg/ml BVZ or 0.1 μM MIT and (D) tumors formed by PANC-1 cells in nude mice that received treatment as described in FIG. 2A. […]

[4] = H727 carcinoid subcutaneous xenograft; settings: BVZ; abstract does not name the model
Protocol: (§1) H727 carcinoid tumor volume during treatment course in nude mouse xenograft model for various doses and administration routes of mithramycin.
(§2) H727 and BON-1 cells were injected into the subcutis of nude mice (n=5). When tumors reached around 4 mm in diameter, the animals received different doses of MIT (0.10 [M-10], 0.20 [M-20], and 0.40 [M-40] mg/kg) via intraperitoneal injection twice a week. Tumors were measured once every week, and at each measurement, the mean±standard deviation (SD) tumor volume in the five mice in each group was calculated (A). […] This was one representative experiment of two with similar results.
(§3) H727 and BON-1 cells were injected subcutaneously into nude mice. […] A. Tumors were measured once every week, and at each measurement, the mean±SD tumor volume in the five mice in each group was calculated. B. Mouse body weights were measured. The asterisks indicate the statistical significance (P<0.01) in a comparison between the treated and respective control groups. This was one representative experiment of two with similar results.
(§4) H727 carcinoid cells were injected into the subcutis of groups of mice (n=5). When tumors reached 4 mm in diameter, animals received injections of PBS (controls), MIT (0.10, 0.20, or 0.40 mg/kg (s.c. or i.p.) twice a week. Tumors were measured once every week, and at each measurement, the mean±SD tumor volume in the five mice in each group was calculated.
(§5) Mithramycin-A (MIT, 1 mg/vial crystal powder; lot 055K4011) was purchased from Sigma Chemical Co. (St. Louis, Mo.) and diluted in sterile water. BVZ (25 mg/ml; NDC 50242-060-01) from Genentech, Inc. (South San Francisco, Calif.) was purchased. For animal experiments, MIT (0.1 to 0.4 mg/kg body weight) and BVZ (25 to 100 μg/mouse) were administered by intraperitoneal or subcutaneous injections twice a week or as otherwise stated.
(§6) Female athymic BALB/c nude mice were purchased from The Jackson Laboratory (Bar Harbor, Me.). The mice were housed in laminar flow cabinets under specific pathogen-free conditions and used when they were 8 weeks old.
(§7) H727 and BON-1 tumor cells were injected into the subcutis of mice as described in the Materials and Methods. MIT treatment started when tumor sizes reached around 3-4 mm in diameters. […] Moreover, the residual tumors were harvested and angiogenesis was assessed by CD31 staining.
(§8) Specifically, we injected H727 and BON-1 cells subcutaneously into nude mice. […] We also administered PBS injections to animals as controls.
(§9) H727 and BON-1 cells were injected subcutaneously into nude mice and then administered treatment to them as described in FIG. 20.

H727 cells = assay: H727 carcinoid subcutaneous xenograft
Protocol: as §1, §2, §3, §4, §5, §6, §7, §8, §9

bevacizumab [BVZ]
antitumor activity at low dose (PANC-1 cells [1]): marginal antitumor activity
cell growth in vitro (PANC-1 cells [2]): did not affect the growth
Sp1 recruitment to its own promoter [3]: did not affect Sp1 recruitment
human neuroendocrine tumor growth [4]: suppressed human neuroendocrine tumor growth in nude mice in a dose-dependent manner
antitumor activity at low dose (H727 cells; BVZ 25 μg, MIT 0.10 mg/kg, alone or combined, i.p. twice a week): marginal antitumor activity
body weight (H727 cells; BVZ alone): no discernable effects on body weight
animal survival (H727 cells; compared with PBS, 160 days): slightly increased survival rate
